Experimental data published in patent US20110236330A1, “Skin Whitening” (priority 2008, published 2011).

Tests used:
[1] = system: Melanocytes (B16 cell line); assay: Melanogenesis inhibition assay (melanin level and cellular protein level); assay type: cell-based; details: 3 days incubation; for Protein level: cellular proteins (Bradford) as number of viable cells; for Melanin level: optical density at 475 nm
Procedure: Melanocytes (B16 cell line) are inoculated in standard medium of cell culture with fetal calf serum (FCS). After an incubation of 3 days at 37° C. and CO2=5%, growth medium is exchanged for standard medium with a range of concentrations for each compound to be tested and a control without ingredient. After an incubation of 3 days, the level of melanin is measured by recording the optical density at 475 nm. After washing the cells by a balanced salt, and homogenization in a solution of 0.1 M NaOH, the number of viable cells is determined by the level of cellular proteins (Bradford's method).
The results are expressed in % against control (cell culture medium without compound) as a mean on 2 to 3 assays, each in triplicate.

[2] = Stability assay (visual coloration of solutions on storage); assay type: physicochemical; set-up: key to Coloration: —: no coloration; +: moderate coloration; ++: strong coloration; details: for Coloration: room temperature, aqueous buffer:ethanol 1:1, away from day light; for Stability in protic solution: up to 120 days of incubation
Procedure: 5-hydroxy-L-tryptophan, 6-fluoro-DL-tryptophan, 4-methyl-DL-tryptophan were dissolved at 1 or 10 mg/ml in a solution aqueous buffer at ph 5.5 and pH 7 (citric acid 0.1 M, Na2HPO4 0.2 M):ethanol 1:1 vol:vol. The solutions are kept away from day light and stored at room temperature. After 30, 60 and 120 days, the coloration of the solutions are visually assessed.

SMILES | Protein level ([1]; dose 0.001 % (w/v)) [%/control] | Melanin level ([1]; dose 0.001 % (w/v)) [%/control] | Protein level ([1]; dose 0.003 % (w/v)) [%/control] | Melanin level ([1]; dose 0.003 % (w/v)) [%/control] | Coloration ([2]; pH 5.5, 30 days) | Coloration ([2]; pH 5.5, 60 days) | Coloration ([2]; pH 5.5, 120 days) | Coloration ([2]; pH 7.0, 30 days) | Coloration ([2]; pH 7.0, 60 days) | Coloration ([2]; pH 7.0, 120 days) | Stability in protic solution ([2]; pH 5.5 and 7) | Protein level ([1]; dose 0.01 % (w/v)) [%/control] | Melanin level ([1]; dose 0.01 % (w/v)) [%/control] | Coloration of the solution (in words) ([2]; at 30 days, protic solution, pH 5.5 and 7)
Cc1cccc2[nH]cc(CC(N)C(=O)O)c12 (racemic) [4-Methyl-DL-Tryptophan] | 97 | 56 | 100 | 33 | — | — | — | — | — | — | high stability |  |  | 
COc1ccc2[nH]cc(CC(N)C(=O)O)c2c1 (racemic) [5-Methoxy-DL-Tryptophan] | 96 | 90 | 92 | 65 |  |  |  |  |  |  |  |  |  | 
NC(Cc1c[nH]c2cc(F)ccc12)C(=O)O (racemic) [6-Fluoro-DL-Tryptophan] | 106 | 44 | 108 | 10 | — | — | — | — | — | — | high stability |  |  | 
Cc1ccc2c(CC(N)C(=O)O)c[nH]c2c1 (racemic) [6-Methyl-DL-Tryptophan] |  |  | 102 | 81 |  |  |  |  |  |  |  | 100 | 39 | 
N[C@@H](Cc1c[nH]c2ccc(O)cc12)C(=O)O [5-hydroxy-L-tryptophan, 5-Hydroxy-L-Tryptophan, reference compound] |  |  |  |  | ++ | ++ | ++ | ++ | ++ | ++ |  |  |  | visible dark-brown coloration
